Like-named read-outs stand apart in the source and are kept apart here.
Columns and labels:
[1] = test system: primary human T-cells
[2] = biological target: hDGKzeta(1-928)-N-His (Homo sapiens (Human), UniProt Q13574); assay: DGKzeta ADP Glo assay (in vitro DGK inhibition); type: biochemical; conditions: DLG 125 uM, ATP 50 μM, DGK ζ 2 nM, 1 hour reaction
How it was run: (§1)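 His-tagged human DGKα (4 nM) and DGKζ (2 nM) phosphorylate DLG presented in DLG/PS/PC liposomes using ATP; reaction run 1 hour. ADP formed measured by ADP-Glo luminescence. Compounds tested as 11-point 1:3 dose response […], 2% DMSO final.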

[3] = biological target: hDGKalpha(1-735)-N-His (Homo sapiens (Human), UniProt P23743); assay: DGKalpha ADP Glo assay (in vitro DGK inhibition); type: biochemical; conditions: DLG 125 uM, ATP 25 μM, DGK α 4 nM, 1 hour reaction
How it was run: as §1

[4] = test system: primary human T-cells; assay: Proliferation assay after 5 days (CellTiter-Glo, CD3 stimulation; PBS counter screen); type: cell-based; conditions: Homo sapiens, T-cell, 120 h, CD3 stimulation; for Emax: 5 days, normalized to reference compound A1 as stimulator control = 100%, DMSO neutral control, read-out: Emax proliferation (% activation); for EC50: primary human T-cells, CellTiter-Glo after 5 days, EC50 of fitted sigmoidal curve, read-out: Tcell Proliferation CD3 EC50
How it was run: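 After compound addition to medium-only plates, cells are cultured 5 days, equilibrated to room temperature, mixed with an equal volume of CellTiter-Glo 2.0 and rocked 15 min before luminescence is read. Signal reflects ATP content, taken as proportional to cell number.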

[5] = test system: MV-3 cells; assay: T-cell - TCB - MV3 killing assay (MCSP-TCB, RFP object count by Incucyte); type: cell-based, human; conditions: Homo sapiens, MV-3, 120 h, 5 d; for Emax: normalized: MCSP-TCB only = neutral control, 20 μM reference compound A1 = 100%, read-out: MSCP TCB killing MV-3 cells 5 d Emax; for EC50: primary human T-cells + MCSP-TCB, MV-3 RFP cells, read-out: MSCP TCB killing MV-3 cells 5 d EC50

Chain of hDGKzeta(1-928)-N-His (Q13574 whole entry): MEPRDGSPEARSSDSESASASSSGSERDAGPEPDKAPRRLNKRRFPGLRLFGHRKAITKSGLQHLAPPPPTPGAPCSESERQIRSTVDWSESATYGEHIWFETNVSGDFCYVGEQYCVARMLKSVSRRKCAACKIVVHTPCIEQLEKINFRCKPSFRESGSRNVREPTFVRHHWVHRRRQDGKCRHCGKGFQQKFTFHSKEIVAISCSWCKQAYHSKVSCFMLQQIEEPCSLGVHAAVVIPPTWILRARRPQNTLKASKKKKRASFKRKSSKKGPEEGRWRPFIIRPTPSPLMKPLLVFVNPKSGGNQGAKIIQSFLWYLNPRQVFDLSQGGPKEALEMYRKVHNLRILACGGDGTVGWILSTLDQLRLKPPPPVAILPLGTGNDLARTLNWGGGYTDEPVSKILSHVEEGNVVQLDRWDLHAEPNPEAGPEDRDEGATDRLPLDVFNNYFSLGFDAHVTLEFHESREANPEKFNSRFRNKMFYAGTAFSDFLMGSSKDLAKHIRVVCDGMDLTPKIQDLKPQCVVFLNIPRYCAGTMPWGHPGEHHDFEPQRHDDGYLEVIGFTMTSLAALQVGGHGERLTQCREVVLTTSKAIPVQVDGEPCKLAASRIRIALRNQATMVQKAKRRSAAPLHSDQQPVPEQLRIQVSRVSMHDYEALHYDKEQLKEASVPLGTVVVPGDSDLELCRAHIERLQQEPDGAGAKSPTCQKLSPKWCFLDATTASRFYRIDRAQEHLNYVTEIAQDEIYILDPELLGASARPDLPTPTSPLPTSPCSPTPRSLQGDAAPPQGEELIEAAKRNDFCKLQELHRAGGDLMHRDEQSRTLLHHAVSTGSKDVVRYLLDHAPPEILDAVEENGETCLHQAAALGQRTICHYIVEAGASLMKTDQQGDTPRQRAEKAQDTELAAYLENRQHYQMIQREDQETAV
Chain of hDGKalpha(1-735)-N-His (P23743 whole entry): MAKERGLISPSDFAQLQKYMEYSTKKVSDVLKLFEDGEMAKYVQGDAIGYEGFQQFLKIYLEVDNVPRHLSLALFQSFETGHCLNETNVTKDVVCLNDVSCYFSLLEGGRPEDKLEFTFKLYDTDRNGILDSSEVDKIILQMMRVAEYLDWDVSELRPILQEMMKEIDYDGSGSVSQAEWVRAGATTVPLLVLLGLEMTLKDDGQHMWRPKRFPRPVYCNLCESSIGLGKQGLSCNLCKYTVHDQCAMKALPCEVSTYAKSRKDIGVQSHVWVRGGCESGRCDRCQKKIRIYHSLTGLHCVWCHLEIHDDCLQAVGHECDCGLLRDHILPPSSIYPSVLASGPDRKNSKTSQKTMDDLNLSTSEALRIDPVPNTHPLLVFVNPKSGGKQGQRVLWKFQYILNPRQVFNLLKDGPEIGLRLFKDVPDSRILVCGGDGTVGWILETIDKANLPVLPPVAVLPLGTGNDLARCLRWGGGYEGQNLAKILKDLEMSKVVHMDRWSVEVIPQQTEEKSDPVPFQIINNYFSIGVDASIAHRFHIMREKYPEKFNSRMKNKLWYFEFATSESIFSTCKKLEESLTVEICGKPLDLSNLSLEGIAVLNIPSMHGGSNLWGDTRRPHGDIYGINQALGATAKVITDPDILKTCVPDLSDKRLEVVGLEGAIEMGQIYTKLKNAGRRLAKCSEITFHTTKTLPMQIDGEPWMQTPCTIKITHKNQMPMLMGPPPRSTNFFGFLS

| EC50 [1] | IC50 [2] | IC50 [3] | Structure (SMILES) | Emax [4] | EC50 [4] | Emax [5] | EC50 [5] |
| --- | --- | --- | --- | --- | --- | --- | --- |
| 508 nM | 632 nM | 625 nM | N[C@H]1CS(=O)(=O)c2cc(F)c(-c3nnc(NC4CCC4)o3)cc2N(Cc2ccc(Cl)cc2)C1=O [Example 459, (3R)-3-amino-5-[(4-chlorophenyl)methyl]-7-[5-(cyclobutylamino)-1,3,4-oxadiazol-2-yl]-8-fluoro-1,1-dioxo-2,3-dihydro-1λ^6,5-benzothiazepin-4-one] | 91% | 591 nM | 91% | 330 nM |
| 458 nM | 1030 nM | 2090 nM | N[C@H]1CS(=O)(=O)c2cc(F)c(-c3nnc(NC4CCCCC4)o3)cc2N(Cc2ccc(Cl)cc2)C1=O [Example 466, (3R)-3-amino-5-[(4-chlorophenyl)methyl]-7-[5-(cyclohexylamino)-1,3,4-oxadiazol-2-yl]-8-fluoro-1,1-dioxo-2,3-dihydro-λ^6,5-benzothiazepin-4-one] | 103% | 454 nM | 95% | 240 nM |

Source: US20240368150A1 (Hoffmann-La Roche Inc., priority 2021, published 2024)
